# Measurements: US11746103B2, “ALK-5 inhibitors and uses thereof” (Sumitomo Pharma Oncology, Inc., priority 2020, dated 2023)
# pIC50: −log10 of the molar value. Read-outs that look alike come from different tables or passages of the source.
# Tests used:
# [1] = tested on: phospho-SMAD2 (Ser 465/467) in A549 xenograft; test: A549 xenograft study, tumor phospho SMAD2; format: in vivo, mouse; conditions: for phospho SMAD2 levels in tumor (normalized to GAPDH): 10, 50, 75, 100 mg/Kg; for inhibition at 10 mg/kg / inhibition at 50 mg/kg / inhibition at 75 mg/kg / inhibition at 100 mg/kg: Mus musculus, A549, oral gavage, 3 hours after administration, read-out: Percent of p-SMAD2 inhibition compared to vehicle control
# Source text: To test compounds for in vivo on-target activity (ALK5/TGF-βR1 inhibition), a study was completed using an A549 murine xenograft model. This model was utilized since an ALK5 inhibitor is expected to reduce the amount of the key TGF-β signaling molecule phosphoSMAD2 in the A549 xenograft cells. The TGF-β mediated phosphorylation in A549 cells takes place at amino acid residue four hundred and sixty-five and four hundred and sixty-seven (both are serine residues).
# Eight-week old, female athymic nude mice (Charles River) were injected with approximately four million A549 cells (ATCC, CCL-185). The cells employed were harvested and resuspended in plain RPMI media (no phenol red added) and matrigel (Fisher Scientific) at a one to one ratio. Injection comprised a two-hundred microliter sample injected into the right hind flank of each mouse. Resulting tumors were measured every three days by caliper and as tumors reached an average of one hundred and thirty millimeters cubed, mice were randomized in groups of three.
# All compounds were resuspended in 1-Methyl-2-pyrrolidinone (10%) plus 20% Solutol in water (90%). Galunisertib was included as a positive control and given at seventy-five milligram per kilogram to three mice. The drug suspensions were sonicated for fifteen minutes to generate a fine particle suspension before being administered to a subject. Mice were dosed (per oral gavage) at dose levels of one hundred mg/Kg, seventy-five mg/Kg, fifty mg/Kg and ten mg/Kg with three mice in each group. A vehicle control group with three mice was used to establish the baseline level of phospho SMAD2 in the tumor xenograft. Three hours after drug administration, tumors were harvested and stored at negative eighty degrees Celsius until further processing. The phospho SMAD2 levels were determined using the BioPlex Pro anti phospho-SMAD2 (Ser 465/467) beads from Biorad and this signal was normalized using GAPDH levels from each sample (Milliplex MAP GAPDH beads, Sigma/Millipore). Tumors were processed according to kit instructions and beads analyzed using the MagPix instrument by Luminex.
# ALK-5 = ALK-5 (Homo sapiens (Human), UniProt P36897); test: LanthaScreen Eu Kinase Binding Assay, ALK-5; conditions: for pIC50: read-out: Kinase Inhibition: ALK5 IC50
# Method: Activity determinations and selectivity were conducted by Thermo Fisher Scientific “SelectScreen™ Biochemical Kinase Profiling Service” using their “LanthaScreen™ Eu Kinase Binding Assay Screening” (www.thermofisher.com/selectscreen). Binding of an Alexa Fluor™ conjugate or “tracer” to a kinase is detected by addition of a Eu-labeled anti-tag antibody. Binding of the tracer and antibody to a kinase results in a high degree of FRET, whereas displacement of the tracer with a kinase inhibitor results in a loss of FRET. This assay is carried out by mixing the compound tested with the reagents and reading, no development step is required. Life Technologies' Kinase Tracers are based on ATP-competitive kinase inhibitors, making them suitable for detection of any compounds that bind to the ATP site. Inhibitors that bind the ATP site include both Type I kinase inhibitors, which bind solely to the ATP site, and Type II inhibitors (e.g., Gleevec®/Imatinib, Sorafenib, BIRB-796), which bind to both the ATP site and a second site often referred to as the allosteric site. […] For 10 point titrations, 3-fold serial dilutions are conducted from the starting concentration (see Table 2 below). [table] All Kinase/Antibody Mixtures are diluted to a 2× working concentration in the specified kinase buffer. The 4× AlexaFluor labeled Tracer is prepared in Kinase Buffer. Bar-coded, low volume, white 384-well plate (Greiner Cat. #784207) […] 2. 3.84 μL—Kinase Buffer […] 4. 4.0 μL—4× Tracer 5. 30-second plate shake 6. 60-minute incubation at room temperature 7. […] The LanthaScreen Eu Kinase Binding Assay data is analyzed using the equations in Table 3 for each set of data points. [table] Data generated were plotted using the graphing software XLfit from IDBS. The dose response curve is curve fit to model number 205.
# [2] = tested on: TGF-beta induced SMAD signaling; test: RDSR (RD SMAD reporter) Cellular Reporter Assay; format: cell-based; conditions: Homo sapiens, 200 pg/ml rhTGF-beta1, 24 h
# Source text: TGF-β signaling is triggered when the activated TGF-β homodimer binds to the TGF-β receptor 2, which in turn leads to the recruitment and phosphorylation of TGF-β receptor 1 (ALK5). Activated TGF-β receptor 1 phosphorylates the signal transduction molecules SMAD2 and SMAD3. These bind to common mediator SMAD4 and translocate to the nucleus where they bind to short conserved DNA sequences called the SMAD binding element and induce the transcription of various target genes. […] Certain example compounds were also or alternatively assayed using the RDSR Cellular Reporter Assay. Overview and Design: The RD SMAD reporter (RDSR) cell line was generated by stabily integrating the SMAD cellular reporter plasmid (Promega, pGL4.48[luc2P/SBE/Hygro]) into the human rhabdomyosarcoma cell line RD (ATCC, CCL-136). Once SMAD signaling is triggered, with, for example, the addition of TGF-β 1, receptor activated SMADs bind the SMAD binding elements (SBEs) leading to the expression of intracellular luciferase. To determine the potency of compounds at inhibiting TGF-beta induced SMAD signaling, the RDSR reporter system was utilized. The rhabdomyosarcoma line RD (ATCC, CCL-136) was transfected with a SMAD reporter vector (Promega, E3671) and a polyclonal stable cell line was selected using hygromycin B. The transfected vector contains three copies of a SMAD-binding element (SBE) that drive transcription of the luciferase reporter gene luc2P (Photinus pyralis). luc2P is a synthetically-derived luciferase sequence with humanized codon optimization that is designed for high expression and reduced anomalous transcription. The luc2P gene contains hPEST, a protein destabilization sequence, which allows luc2P protein levels to respond more quickly than those of luc2 to induction of transcription. The intracellular luciferase is quantified by the addition of equal volume (100 μl) of ONE-GLO substrate (Promega, E6120) and read within ten minutes on the Envision plate reader. The stable RDSR cell line was tested by evaluating the response to human TGF-β1 (R&D Systems, 7754-BH-005) as well as human myostatin (R&D Systems, 788-G8-010/CF) in a concentration dependent manner after twenty-four hours of stimulation. […] For compound evaluation, the tool drugs Galunisertib and Vactosertib were included as positive controls. The tool drugs and the compounds of the invention being tested were all incubated with cells for one hour at 37° C. before stimulation with 200 pg/ml rhTGF-beta1 for twenty-four hours. The activity of the reporter was determined with the addition of ONE-GLO (Promega) substrate and luminescence counts collected on the Envision plate reader (Perkin Elmer). […] The activity of compounds of the invention as determined using this method are reported in the third column of Table 1, below.
# [3] = tested on: TGF-β1 mediated alpha-SMA expression in primary human bronchial fibroblasts derived from IPF patients; test: Fibroblast to Myofibroblast Transformation (FMT) assay
# Method: To test the ability of compounds of the invention to inhibit the TGF-β1 dependent transition of fibroblasts to myofibroblasts in a relevant disease model of IPF, a study was carried out using an FMT assay employing lung fibroblasts from IPF patients. In this model the transition of fibroblasts to myofibroblasts is determined by the expression of the biomarker alpha smooth muscle actin (SMA).
# Each drug concentration condition was evaluated in biological duplicates. One hour after compound addition, cells were stimulated with 1.25 ng/ml of TGF-01 and cultured for 72 hours thereafter. At the end of 72 hours cells were fixed using formaldehyde. The results were generated using high content imaging after staining cells using the nuclear stain DAPI as well as evaluation of the expression of alpha SMA. […] As a negative control 0.1% DMSO was used matching the DMSO concentration in treated wells.
# [4] = read-out: RD-SMAD reporter activity
# ALK-5, sequence (P36897 34-503): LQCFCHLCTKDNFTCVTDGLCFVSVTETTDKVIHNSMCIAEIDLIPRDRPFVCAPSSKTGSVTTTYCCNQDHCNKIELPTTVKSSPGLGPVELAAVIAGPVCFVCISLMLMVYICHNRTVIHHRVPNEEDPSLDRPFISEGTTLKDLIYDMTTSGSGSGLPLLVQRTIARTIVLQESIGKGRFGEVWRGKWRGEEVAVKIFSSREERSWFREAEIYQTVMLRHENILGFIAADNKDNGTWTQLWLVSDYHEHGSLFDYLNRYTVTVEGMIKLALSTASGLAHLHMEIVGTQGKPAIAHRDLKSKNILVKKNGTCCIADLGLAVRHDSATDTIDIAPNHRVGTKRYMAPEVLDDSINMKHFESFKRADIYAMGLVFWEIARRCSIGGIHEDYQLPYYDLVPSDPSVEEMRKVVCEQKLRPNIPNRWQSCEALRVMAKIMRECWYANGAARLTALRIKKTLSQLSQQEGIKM
Kinase Selectivity: ALK2 IC50/ ALK5 IC50 (ALK-5),pIC50 (ALK-5),"pIC50 [2, 4]",SMILES,further results
(++) (10<ALK2/ALK5<100=[++]),> 8.00,> 7.00,"Cc1cccc2c(Nc3ccnc(Nc4ccc(N5CCOCC5)c(Cl)c4)n3)cnnc12 [EX-12, N2-(3-chloro-4-morpholino-phenyl)-N4-(8-methyl-cinnolin-4-yl)-pyrimidine-2,4-diamine]",observed level of p-SMAD2 as percent of vehicle-only group ([1]; 100 mg/Kg): 45.5%; phospho SMAD2 levels in tumor (normalized to GAPDH) [1]: reduced the phopho SMAD2 levels (p-SMAD2) in a dose dependent fashion; inhibition at 10 mg/kg [1]: 19.9%; inhibition at 50 mg/kg [1]: 35.8%; inhibition at 75 mg/kg [1]: 40.1%; inhibition at 100 mg/kg ([1]; 100 mg/Kg): 55.5%
(++) (10<ALK2/ALK5<100=[++]),> 8.00,> 7.00,"Cc1cccc2c(Nc3ccnc(Nc4ccc(N5CCOCC5)c(F)c4)n3)cnnc12 [EX-13, N2-(3-fluoro-4-morpholino-phenyl)-N4-(8-methylcinnolin-4-yl)-pyrimidine-2,4-diamine]",phospho SMAD2 levels in tumor (normalized to GAPDH) [1]: reduced the phopho SMAD2 levels (p-SMAD2) in a dose dependent fashion; inhibition at 10 mg/kg [1]: 37.9%; inhibition at 50 mg/kg [1]: 76.3%; inhibition at 75 mg/kg [1]: 76.8%; inhibition at 100 mg/kg ([1]; 100 mg/Kg): 75.7%
(++) (10<ALK2/ALK5<100=[++]),> 8.00,6.00 to 7.00,"Clc1cccc2c(Nc3ccnc(Nc4ccc(N5CCNCC5)cc4)n3)cnnc12 [EX-50, N4-(8-chlorocinnolin-4-yl)-N2-(4-(piperazin-1-yl)phenyl)pyrimidine-2,4-diamine]",–
(+) (≤10=[+]),> 8.00,6.00 to 7.00,"Cc1nnc2c(C)cccc2c1Nc1ccnc(Nc2cccc(N3CCOCC3)c2)n1 [EX-51, N4-(3,8-dimethylcinnolin-4-yl)-N2-(3-morpholinophenyl)pyrimidine-2,4-diamine]",–
(+) (≤10=[+]),> 8.00,6.00 to 7.00,"Cc1nnc2c(C)cccc2c1Nc1ccnc(Nc2ccc(N3CCOCC3)cc2)n1 [EX-52, N4-(3,8-dimethylcinnolin-4-yl)-N2-(4-morpholinophenyl)pyrimidine-2,4-diamine]",–
(++) (10<ALK2/ALK5<100=[++]),> 8.00,> 7.00,"Cc1cccc2c(Nc3ccnc(Nc4ccc(N5CCN(C)CC5)c(F)c4)n3)cnnc12 [EX-53, N2-(3-fluoro-4-(4-methylpiperazin-1-yl)phenyl)-N4-(8-methylcinnolin-4-yl)pyrimidine-2,4-diamine]",–
(++) (10<ALK2/ALK5<100=[++]),7.00 to 8.00,6.00 to 7.00,"Cc1cccc2c(Nc3ccnc(Nc4ccc(C(C)(C)C)cc4)n3)cnnc12 [EX-54, N2-(4-(tert-butyl)phenyl)-N4-(8-methylcinnolin-4-yl)pyrimidine-2,4-diamine]",–
(++) (10<ALK2/ALK5<100=[++]),> 8.00,> 7.00,"Cc1cccc2c(Nc3ccnc(Nc4ccc(N5CCCCC5)cc4)n3)cnnc12 [EX-55, N4-(8-methylcinnolin-4-yl)-N2-(4-(piperidin-1-yl)phenyl)pyrimidine-2,4-diamine]",–
(+++) (100≤ALK2/ALK5=[+++]),> 8.00,6.00 to 7.00,"Cc1cccc2c(Nc3ccnc(Nc4ccc(C5CCCCC5)cc4)n3)cnnc12 [EX-56, N2-(4-cyclohexylphenyl)-N4-(8-methylcinnolin-4-yl)pyrimidine-2,4-diamine]",–
(++) (10<ALK2/ALK5<100=[++]),> 8.00,> 7.00,"c1cc(Nc2nccc(Nc3cnnc4c(C5CC5)cccc34)n2)cc(N2CCOCC2)c1 [EX-57, N4-(8-cyclopropylcinnolin-4-yl)-N2-(3-morpholinophenyl)pyrimidine-2,4-diamine]",–
(++) (10<ALK2/ALK5<100=[++]),> 8.00,> 7.00,"c1cc(C2CC2)c2nncc(Nc3ccnc(Nc4ccc(N5CCOCC5)cc4)n3)c2c1 [EX-58, N4-(8-cyclopropylcinnolin-4-yl)-N2-(4-morpholinophenyl)pyrimidine-2,4-diamine]",–
–,–,–,"Cc1cccc(-c2nn3c(c2-c2ccnc4ccc(C(N)=O)cc24)CCC3)n1 [Galunisertib, reference compound]","LogM IC50 αSMA ([3]; donor IPF05): −5.7 LogM; Max PIN (%) ([3]; donor IPF05): 100.8%; LogM IC50 αSMA ([3]; donor IPF06): −5.9 LogM; Max PIN (%) ([3]; donor IPF06): 104.4%; potentially toxic (>25% loss of nuclei) ([3]; donor IPF06): >−5.5; LogM IC50 αSMA ([3]; donor IPF08): −5.9 LogM; Max PIN (%) ([3]; donor IPF08): 99.6%; pIC50 ([2]; control compounds, read-out: RDSR reporter activity): ~6.44"
–,–,–,"COC(=O)c1ccc2c(c1)NC(=O)/C2=C(\Nc1ccc(N(C)C(=O)CN2CCN(C)CC2)cc1)c1ccccc1 [Nintedanib, reference compound]",LogM IC50 αSMA ([3]; donor IPF05): −6.5 LogM; Max PIN (%) ([3]; donor IPF05): 92.1%; LogM IC50 αSMA ([3]; donor IPF06): −6.3 LogM; Max PIN (%) ([3]; donor IPF06): 86.8%; LogM IC50 αSMA ([3]; donor IPF08): −6.4 LogM; Max PIN (%) ([3]; donor IPF08): 88.2%
